Consider 22 compounds from patent US20250009745A1, “CDK INHIBITOR” (SHANGHAI QILU PHARMACEUTICAL RESEARCH AND DEVELOPMENT …, priority 2021, published 2025).

Assay in all cases: CDK enzymology experiment in vitro, capillary mobility shift assay (MSA)
What all share (type): biochemical

In one test the target is T1, CDK1 (Homo sapiens, UniProt P06493).
T1 construct: purchased Carna Company
To be noted: read-out: CDK1 (nM) inhibitory IC50. The method in brief:
(§1)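 Recombinant kinases tested against peptide substrates in 1× kinase buffer, with compound added as a 100-fold DMSO stock. Top concentration 1, 10 or 30 μM, 3-fold dilutions over 10 points, in duplicate. Substrate conversion read by Caliper EZ Reader, normalised to no-enzyme and no-compound controls, and IC50 fitted with a variable-slope log(inhibitor)–response model.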

In the next test the target is T2, CDK2 (Homo sapiens, UniProt P24941).
T2 construct: purchased Carna Company
To be noted: read-out: CDK2 (nM) inhibitory IC50. A digest of the protocol:
as §1

Another test addresses T3, CDK4 (Homo sapiens, UniProt P11802).
T3 construct: purchased Carna Company
As to conditions: read-out: CDK4 (nM) inhibitory IC50. A digest of the protocol:
as §1

Another test addresses T4, CDK7 (Homo sapiens, UniProt P50613).
T4 construct: purchased Carna Company
As to conditions: read-out: CDK7 (nM) inhibitory IC50. The method in brief:
as §1

The next test addresses T5, CDK9 (Homo sapiens, UniProt P50750).
T5 construct: purchased Carna Company
As to conditions: read-out: CDK9 (nM) inhibitory IC50. A digest of the protocol: as §1

The next test concerns the target T6, CDK6 (Homo sapiens, UniProt Q00534).
T6 construct: purchased Carna Company
As to conditions: read-out: CDK6 (nM) inhibitory IC50.

T4 sequence (P50613 whole entry): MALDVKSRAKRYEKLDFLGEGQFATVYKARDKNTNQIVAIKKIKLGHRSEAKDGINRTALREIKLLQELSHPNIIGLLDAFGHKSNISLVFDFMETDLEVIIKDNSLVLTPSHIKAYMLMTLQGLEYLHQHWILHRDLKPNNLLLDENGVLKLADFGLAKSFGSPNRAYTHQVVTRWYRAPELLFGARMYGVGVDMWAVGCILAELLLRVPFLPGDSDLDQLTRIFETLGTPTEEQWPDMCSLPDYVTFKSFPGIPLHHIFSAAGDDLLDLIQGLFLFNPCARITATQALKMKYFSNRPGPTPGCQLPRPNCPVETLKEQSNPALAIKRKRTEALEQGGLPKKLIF
T4 sequence (P51946 whole entry partner): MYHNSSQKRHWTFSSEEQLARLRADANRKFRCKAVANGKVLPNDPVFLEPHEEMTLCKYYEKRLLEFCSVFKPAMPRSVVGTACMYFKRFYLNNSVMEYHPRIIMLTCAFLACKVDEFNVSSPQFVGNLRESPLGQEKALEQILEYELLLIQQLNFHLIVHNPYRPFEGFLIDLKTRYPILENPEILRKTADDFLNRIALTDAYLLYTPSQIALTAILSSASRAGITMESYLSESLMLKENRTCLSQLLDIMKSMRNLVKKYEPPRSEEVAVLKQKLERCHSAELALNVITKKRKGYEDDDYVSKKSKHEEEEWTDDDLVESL
T4 sequence (P51948 whole entry partner): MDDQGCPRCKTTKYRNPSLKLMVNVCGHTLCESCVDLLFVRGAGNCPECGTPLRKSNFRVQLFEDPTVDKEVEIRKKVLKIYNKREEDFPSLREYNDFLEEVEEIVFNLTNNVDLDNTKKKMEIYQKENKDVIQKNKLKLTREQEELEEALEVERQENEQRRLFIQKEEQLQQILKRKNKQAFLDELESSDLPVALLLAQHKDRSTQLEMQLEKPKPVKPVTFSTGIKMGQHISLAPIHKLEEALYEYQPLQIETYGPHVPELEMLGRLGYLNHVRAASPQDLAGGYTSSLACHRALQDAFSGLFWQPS
T1 sequence (P06493 whole entry): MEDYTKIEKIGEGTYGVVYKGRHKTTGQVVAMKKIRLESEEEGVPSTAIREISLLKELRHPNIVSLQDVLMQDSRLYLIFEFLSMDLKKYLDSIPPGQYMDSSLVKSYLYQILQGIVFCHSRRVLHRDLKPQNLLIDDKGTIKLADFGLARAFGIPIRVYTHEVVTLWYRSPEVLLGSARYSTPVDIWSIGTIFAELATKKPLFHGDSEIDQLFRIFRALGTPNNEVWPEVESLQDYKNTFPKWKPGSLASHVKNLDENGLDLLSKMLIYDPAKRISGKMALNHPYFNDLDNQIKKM
T1 sequence (P14635 whole entry partner): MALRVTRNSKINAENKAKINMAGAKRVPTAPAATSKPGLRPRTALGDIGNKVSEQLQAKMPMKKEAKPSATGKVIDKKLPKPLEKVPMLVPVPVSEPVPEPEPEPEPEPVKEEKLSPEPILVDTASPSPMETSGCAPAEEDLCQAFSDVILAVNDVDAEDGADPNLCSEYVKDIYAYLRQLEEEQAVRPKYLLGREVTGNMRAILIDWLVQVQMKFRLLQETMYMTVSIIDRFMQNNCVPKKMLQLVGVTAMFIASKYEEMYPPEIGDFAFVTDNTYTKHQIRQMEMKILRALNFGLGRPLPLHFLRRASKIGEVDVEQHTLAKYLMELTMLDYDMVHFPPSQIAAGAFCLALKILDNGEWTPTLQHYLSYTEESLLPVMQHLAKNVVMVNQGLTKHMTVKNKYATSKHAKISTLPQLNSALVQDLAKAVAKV
T5 sequence (P50750 whole entry): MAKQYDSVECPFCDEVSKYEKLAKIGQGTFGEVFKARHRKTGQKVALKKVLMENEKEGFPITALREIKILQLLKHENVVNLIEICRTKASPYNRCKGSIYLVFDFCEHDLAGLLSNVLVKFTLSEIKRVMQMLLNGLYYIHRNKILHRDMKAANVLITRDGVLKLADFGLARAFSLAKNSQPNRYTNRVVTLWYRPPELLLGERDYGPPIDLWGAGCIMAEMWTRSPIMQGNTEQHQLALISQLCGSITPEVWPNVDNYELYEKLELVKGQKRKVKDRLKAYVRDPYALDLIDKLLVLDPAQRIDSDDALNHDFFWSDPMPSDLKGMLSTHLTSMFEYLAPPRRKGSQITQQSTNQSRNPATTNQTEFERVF
T5 sequence (O60563 whole entry partner): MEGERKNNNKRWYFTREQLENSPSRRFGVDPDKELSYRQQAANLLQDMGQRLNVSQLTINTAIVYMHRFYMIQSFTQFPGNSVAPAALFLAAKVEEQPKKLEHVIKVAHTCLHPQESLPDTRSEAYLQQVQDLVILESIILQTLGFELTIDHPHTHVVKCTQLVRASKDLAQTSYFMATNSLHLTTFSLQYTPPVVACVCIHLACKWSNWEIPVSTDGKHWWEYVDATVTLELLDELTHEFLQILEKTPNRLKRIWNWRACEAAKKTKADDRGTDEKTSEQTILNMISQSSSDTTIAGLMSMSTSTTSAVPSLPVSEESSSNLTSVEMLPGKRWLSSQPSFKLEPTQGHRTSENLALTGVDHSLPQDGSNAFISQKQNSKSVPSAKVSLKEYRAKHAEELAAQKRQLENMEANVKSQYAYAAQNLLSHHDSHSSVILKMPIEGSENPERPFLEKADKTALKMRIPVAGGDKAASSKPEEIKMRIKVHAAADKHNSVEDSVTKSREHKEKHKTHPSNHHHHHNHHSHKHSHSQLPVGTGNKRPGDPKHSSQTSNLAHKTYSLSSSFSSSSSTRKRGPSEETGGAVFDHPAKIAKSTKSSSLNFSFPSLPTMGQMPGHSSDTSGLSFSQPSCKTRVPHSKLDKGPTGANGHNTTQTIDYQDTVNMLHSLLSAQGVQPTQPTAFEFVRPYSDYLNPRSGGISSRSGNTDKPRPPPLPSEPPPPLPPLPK
T3 sequence (P11802 whole entry): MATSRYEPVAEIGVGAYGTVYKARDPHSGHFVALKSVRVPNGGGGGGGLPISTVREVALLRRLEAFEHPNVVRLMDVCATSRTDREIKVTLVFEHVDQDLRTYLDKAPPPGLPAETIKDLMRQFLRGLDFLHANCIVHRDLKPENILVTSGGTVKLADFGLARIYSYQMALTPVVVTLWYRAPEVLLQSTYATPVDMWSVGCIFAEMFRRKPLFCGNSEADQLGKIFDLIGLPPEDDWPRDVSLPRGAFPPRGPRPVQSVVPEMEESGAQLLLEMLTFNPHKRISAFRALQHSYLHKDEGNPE
T3 sequence (P30281 whole entry partner): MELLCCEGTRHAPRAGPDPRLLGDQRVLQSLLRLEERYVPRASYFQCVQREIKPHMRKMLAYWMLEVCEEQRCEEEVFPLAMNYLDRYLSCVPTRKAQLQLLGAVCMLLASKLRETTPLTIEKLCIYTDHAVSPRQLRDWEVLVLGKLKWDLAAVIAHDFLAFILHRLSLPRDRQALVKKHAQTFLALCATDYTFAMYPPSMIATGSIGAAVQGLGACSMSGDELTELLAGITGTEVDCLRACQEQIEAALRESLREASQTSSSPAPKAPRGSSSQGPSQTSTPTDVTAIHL
T6 sequence (Q00534 whole entry): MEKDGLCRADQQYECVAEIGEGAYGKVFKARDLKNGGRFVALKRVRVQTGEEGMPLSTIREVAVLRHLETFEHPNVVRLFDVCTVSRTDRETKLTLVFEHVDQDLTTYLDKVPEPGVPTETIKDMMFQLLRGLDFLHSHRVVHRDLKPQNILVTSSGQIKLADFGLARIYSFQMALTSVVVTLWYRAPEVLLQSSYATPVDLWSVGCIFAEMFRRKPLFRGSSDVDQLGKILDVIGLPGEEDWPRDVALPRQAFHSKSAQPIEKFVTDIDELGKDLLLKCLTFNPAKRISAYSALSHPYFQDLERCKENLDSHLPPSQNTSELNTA
T6 sequence (P30281 whole entry partner): as the sequence (P30281 whole entry partner) above

In general, IC50 refers to the concentration that gives 50% inhibition. In the case of `O=S(=O)(c1ccc(C2CCNCC2)c(F)c1)N1CCC(Nc2ncc(C(F)(F)F)c(O[C@H]3CCOC3)n2)CC1` [Compound 122], the 50% inhibitory concentration (IC50) on CDK1 was 10 to 50 nM; on CDK2 it was less than 0.5 nM; on CDK4, 0.5 to 2.5 nM; on CDK7, 10 to 50 nM; at CDK9 it was 100 to 1000 nM; at CDK6, 0.5 to 2.5 nM.

For `CN(C)C1CCN(c2ccc(S(=O)(=O)N3CCC(Nc4ncc(C(F)(F)F)c(O[C@H]5CCOC5)n4)CC3)cc2)CC1` [Compound 132], the IC50 on CDK1 was 2.5 to 10 nM; at CDK2, less than 0.5 nM; on CDK4, 0.5 to 2.5 nM; on CDK7, 10 to 50 nM; on CDK9, 100 to 1000 nM; on CDK6 it was 0.5 to 2.5 nM.

Take `O=S(=O)(c1ccc(C2=CCNC2)cc1)N1CCC(Nc2ncc(C(F)(F)F)c(O[C@H]3CCOC3)n2)CC1` [Compound 146]: the IC50 is 2.5 to 10 nM on CDK1; less than 0.5 nM at CDK2; 0.5 to 2.5 nM at CDK4; 2.5 to 10 nM on CDK7; 100 to 1000 nM on CDK9; 0.5 to 2.5 nM at CDK6.

Turning to `CN(C)CCN(c1nc(NC2CCN(S(=O)(=O)c3cnn(C)c3)CC2)ncc1C#N)C1CCCC1` [Compound 148], the IC50 at CDK1 is 100 to 1000 nM; at CDK2, 10 to 50 nM; on CDK4, 100 to 1000 nM; at CDK7, 100 to 1000 nM; at CDK9 it was more than 1000 nM; on CDK6, 100 to 1000 nM.

For `O=S(=O)(c1ccc([C@@H]2CCNC2)cc1)N1CCC(Nc2ncc(C(F)(F)F)c(O[C@H]3CCOC3)n2)CC1` (single isomer, unassigned) [Compound 151], the half-inhibitory concentration (IC50) on CDK1 was in the range of 10 to 50 nM; at CDK2 it was 0.5 to 2.5 nM; at CDK4, 0.5 to 2.5 nM; at CDK7, 10 to 50 nM; at CDK9 it was 100 to 1000 nM; at CDK6 it was 0.5 to 2.5 nM.

As for `O=S(=O)(c1ccc(C2CNC2)cc1)N1CCC(Nc2ncc(C(F)(F)F)c(O[C@H]3CCOC3)n2)CC1` [Compound 131], the IC50 at CDK1 is 2.5 to 10 nM; on CDK2 it was less than 0.5 nM; at CDK4, 0.5 to 2.5 nM; on CDK7, 2.5 to 10 nM; at CDK9, 100 to 1000 nM; on CDK6 it was 0.5 to 2.5 nM.

As for `Cn1cc(S(=O)(=O)N2CCC(Nc3ncc(C#N)c(N[C@H]4CCOC4)n3)CC2)cn1` [Compound 44], the IC50 on CDK1 was 100 to 1000 nM; at CDK2 it was 2.5 to 10 nM; on CDK4, 50 to 100 nM; on CDK7, 100 to 1000 nM; at CDK9, more than 1000 nM; on CDK6, 50 to 100 nM.

In the case of `Cn1cc(-c2ccc(S(=O)(=O)N3CCC(Nc4ncc(C#N)c(N[C@H]5CCOC5)n4)CC3)cc2)cn1` [Example 8, (S)-2-((1-((4-(1-Methyl-1H-pyrazol-4-yl)phenyl)sulfonyl)piperidin-4-yl)amino)-4-((tetrahydrofuran-3-yl)amino)pyrimidine-5-carbonitrile], the IC50 is 10 to 50 nM on CDK1; 0.5 to 2.5 nM on CDK2; 2.5 to 10 nM at CDK4; 50 to 100 nM at CDK7; 100 to 1000 nM on CDK9; 0.5 to 2.5 nM at CDK6.

As for `O=S(=O)(c1cnn(CCO)c1)N1CCC(Nc2ncc(C(F)(F)F)c(O[C@H]3CCOC3)n2)CC1` [Example 27], the 50% inhibitory concentration (IC50) is 2.5 to 10 nM on CDK1; less than 0.5 nM at CDK2; 2.5 to 10 nM at CDK4; 10 to 50 nM on CDK7; 100 to 1000 nM at CDK9; 10 to 50 nM on CDK6.

On to `Cn1cc(S(=O)(=O)N2CCC(Nc3ncc(C(F)(F)F)c(O[C@H]4CCOC4)n3)CC2)cn1` [Example 7, (S)—N-(1-((1-Methyl-1H-pyrazol-4-yl)sulfonyl)piperidin-4-yl)-4-((tetrahydrofuran-3-yl)oxy)-5-(trifluoromethyl)pyrimidin-2-amine], for which the concentration for half-maximal inhibition (IC50) at CDK1 was 10 to 50 nM; on CDK2 it was 0.5 to 2.5 nM; on CDK4 it was 10 to 50 nM; on CDK7 it was 10 to 50 nM; at CDK9, 100 to 1000 nM; on CDK6 it was 10 to 50 nM.

As for `CC1(O)CCN(c2ccc(S(=O)(=O)N3CCC(Nc4ncc(C(F)(F)F)c(O[C@H]5CCOC5)n4)CC3)cc2)CC1` [Compound 133], the concentration for half-maximal inhibition (IC50) on CDK1 was 2.5 to 10 nM; on CDK2, less than 0.5 nM; at CDK4, 0.5 to 2.5 nM; on CDK7 it was 10 to 50 nM; at CDK9, 50 to 100 nM; on CDK6, 0.5 to 2.5 nM.

Turning to `CS(=O)(=O)N1CCC(Nc2ncc(C(F)(F)F)c(NC3CCCC3)n2)CC1` [Example 5, N^4-Cyclopentyl-N^2-(1-(methylsulfonyl)piperidin-4-yl)-5-(trifluoromethyl)pyrimidine-2,4-diamine], the IC50 on CDK1 lay within 100 to 1000 nM; at CDK2 it was 2.5 to 10 nM; on CDK4, 10 to 50 nM; on CDK7, 10 to 50 nM; at CDK9, 100 to 1000 nM; at CDK6, 10 to 50 nM.

On to `O=S(=O)(c1ccc([C@@H]2CCCNC2)cc1)N1CCC(Nc2ncc(C(F)(F)F)c(O[C@H]3CCOC3)n2)CC1` (single isomer, unassigned) [Example 114], for which the half-inhibitory concentration (IC50) is 2.5 to 10 nM on CDK1; less than 0.5 nM on CDK2; 0.5 to 2.5 nM at CDK4; 2.5 to 10 nM at CDK7; 100 to 1000 nM on CDK9; 0.5 to 2.5 nM on CDK6.

As for `O=S(=O)(c1ccc(N2CC3(CNC3)C2)cc1)N1CCC(Nc2ncc(C(F)(F)F)c(O[C@H]3CCOC3)n2)CC1` [Compound 144], the concentration for half-maximal inhibition (IC50) at CDK1 is 2.5 to 10 nM; at CDK2 it was less than 0.5 nM; on CDK4, 0.5 to 2.5 nM; at CDK7, 2.5 to 10 nM; on CDK9, 100 to 1000 nM; at CDK6 it was 0.5 to 2.5 nM.

Take `Cn1cc(-c2ccc(S(=O)(=O)N3CCC(Nc4ncc(C(F)(F)F)c(O[C@H]5CCOC5)n4)CC3)cc2)cn1` [Compound 142]: the IC50 at CDK1 was 0.5 to 2.5 nM; at CDK2 it was less than 0.5 nM; on CDK4, 0.5 to 2.5 nM; on CDK7, 2.5 to 10 nM; at CDK9, 10 to 50 nM; on CDK6, 0.5 to 2.5 nM.

On to `N#Cc1cnc(NC2CCN(S(=O)(=O)c3ccc(C4=CCNCC4)cc3)CC2)nc1NC1CCCC1` [Example 15, 4-(Cyclopentylamino)-2-((1-((4-(1,2,3,6-tetrahydropyridin-4-yl)phenyl)sulfonyl)piperidin-4-yl)amino)pyrimidine-5-carbonitrile], for which the half-inhibitory concentration (IC50) was 10 to 50 nM on CDK1; 0.5 to 2.5 nM at CDK2; 0.5 to 2.5 nM on CDK4; 10 to 50 nM at CDK7; 100 to 1000 nM at CDK9; 0.5 to 2.5 nM on CDK6.

`Cn1cc(S(=O)(=O)N2CCC(Nc3ncc(C#N)c(NC4CCCC4)n3)CC2)cn1` [Compound 31]: the IC50 lay in the range of 50 to 100 nM on CDK1; 0.5 to 2.5 nM at CDK2; 2.5 to 10 nM at CDK4; 100 to 1000 nM at CDK7; 100 to 1000 nM at CDK9; 0.5 to 2.5 nM at CDK6.

As for `O=S(=O)(c1ccc(N2CCNC(C(F)(F)F)C2)cc1)N1CCC(Nc2ncc(C(F)(F)F)c(O[C@H]3CCOC3)n2)CC1` (stereo partly drawn) [Compound 147], the 50% inhibitory concentration (IC50) fell in the range of 2.5 to 10 nM at CDK1; 0.5 to 2.5 nM on CDK2; 0.5 to 2.5 nM at CDK4; 10 to 50 nM at CDK7; 50 to 100 nM on CDK9; 0.5 to 2.5 nM at CDK6.

On to `C[C@@H]1CN(c2ccc(S(=O)(=O)N3CCC(Nc4ncc(C(F)(F)F)c(O[C@H]5CCOC5)n4)CC3)cn2)C[C@H](C)N1` [Example 117], for which the half-maximal inhibitory concentration (IC50) on CDK1 is 2.5 to 10 nM; at CDK2 it was less than 0.5 nM; at CDK4 it was less than 0.5 nM; on CDK7, 2.5 to 10 nM; on CDK9, 100 to 1000 nM; at CDK6, 0.5 to 2.5 nM.

For `O=S(=O)(c1ccc([C@H]2CCCNC2)cc1)N1CCC(Nc2ncc(C(F)(F)F)c(O[C@H]3CCOC3)n2)CC1` (single isomer, unassigned) [Example 115], the IC50 on CDK1 is 2.5 to 10 nM; on CDK2, less than 0.5 nM; at CDK4 it was 0.5 to 2.5 nM; on CDK7, 2.5 to 10 nM; at CDK9 it was 100 to 1000 nM; at CDK6 it was 0.5 to 2.5 nM.

For the compound `C[C@H]1CN(c2ccc(S(=O)(=O)N3CCC(Nc4ncc(C(F)(F)F)c(O[C@H]5CCOC5)n4)CC3)cc2)C[C@H](C)N1` [Example 168], the IC50 on CDK1 is 2.5 to 10 nM; at CDK2, less than 0.5 nM; on CDK4, 0.5 to 2.5 nM; at CDK7, 2.5 to 10 nM; at CDK9 it was 100 to 1000 nM; on CDK6, less than 0.5 nM.

As to `O=S(=O)(c1ccc(N2CC[C@H](O)C2)cc1)N1CCC(Nc2ncc(C(F)(F)F)c(O[C@H]3CCOC3)n2)CC1` [Compound 141], the IC50 on CDK1 is 2.5 to 10 nM; on CDK2, less than 0.5 nM; at CDK4, 0.5 to 2.5 nM; at CDK7, 10 to 50 nM; on CDK9 it was 100 to 1000 nM; at CDK6, 0.5 to 2.5 nM.
